Assay results: patent publication US4070469A, “Compound for the treatment of bovine mastitis” (priority 1975, dated 1978)
≈ marks a conversion by molar mass, not a printed value. Like-named read-outs stand apart in the source and are kept apart here.

Assays:
Strep.uberis = assay: Minimal bactericidal activity (MBC) in milk, field isolates; assay type: cell-based; conditions: in milk at pH 7.2 - 7.4; for MBC: Streptococcus uberis
Source text: (§1) The activity of some of said nitrofuryl quinolines derivatives against Strep.uberis and Stap.Aureus in milk has been compared with the activity of some of the compounds so far utilised in the treatment of bovine mastitis. The results are shown in Table I. (The nitrofuryl quinoline derivatives have general formula [drawing 1] the meaning of R, A, R', B, Y, X and Z being given in the Table. R1 =O whenever indicated then the N-oxide is concerned; NF stands for nitrofuryl)
(§2) Minimal Bactericidal/Activity (MBC) of representative Nitrofuryl
(§3) in mcg/ml in milk at pH 7.2 - 7.4. Versus Standards (Field

Staph.Aureus = assay: as above; assay type: cell-based; conditions: in milk at pH 7.2 - 7.4; for MBC: Staphylococcus aureus
Source text: as §1, §2, §3

[1] = field isolate 60B, read-out: Minimal Bactericidal Activity (MBC), Strep.uberis 60B
[2] = field isolate 127A, read-out: Minimal Bactericidal Activity (MBC), Strep.uberis 127A
[3] = field isolate 2337, read-out: Minimal Bactericidal Activity (MBC), Staph.Aureus 2337
[4] = field isolate 2372, read-out: Minimal Bactericidal Activity (MBC), Staph.Aureus 2372

Molecule	Minimal Bactericidal Activity (MBC), Strep.uberis 60B (Strep.uberis; field isolate 60B)	Minimal Bactericidal Activity (MBC), Strep.uberis 127A (Strep.uberis; field isolate 127A)	Minimal Bactericidal Activity (MBC), Staph.Aureus 2337 (Staph.Aureus; field isolate 2337)	Minimal Bactericidal Activity (MBC), Staph.Aureus 2372 (Staph.Aureus; field isolate 2372)	MBC (Strep.uberis; [1])	MBC (Strep.uberis; [2])	MBC (Staph.Aureus; [3])	MBC (Staph.Aureus; [4])
Spiramycin [reference compound]	1.56 µg/mL	12.5 µg/mL	25 µg/mL	25 µg/mL	–	–	–	–
Cc1ccc2c(-c3ccc([N+](=O)[O-])o3)cc(C)[n+]([O-])c2c1 [Compound 21]	–	–	–	–	5 µg/mL (≈ 17.6 µM)	10 µg/mL (≈ 35.2 µM)	5 µg/mL (≈ 17.6 µM)	10 µg/mL (≈ 35.2 µM)
CCc1ccc2c(c1)c(-c1ccc([N+](=O)[O-])o1)cc(CC)[n+]2[O-] [Compound 32]	–	–	–	–	1 µg/mL (≈ 3.2 µM)	> 10 µg/mL	> 10 µg/mL	> 10 µg/mL
COc1ccc2c(-c3ccc([N+](=O)[O-])o3)cc(C)[n+]([O-])c2c1 [Compound 23]	–	–	–	–	5 µg/mL (≈ 16.7 µM)	5 µg/mL (≈ 16.7 µM)	5 µg/mL (≈ 16.7 µM)	5 µg/mL (≈ 16.7 µM)
O=[N+]([O-])c1ccc(-c2cc(C(Br)(Br)Br)nc3ccccc23)o1 [Compound 14]	–	–	–	–	5 µg/mL (≈ 10.2 µM)	5 µg/mL (≈ 10.2 µM)	10 µg/mL (≈ 20.4 µM)	> 10 µg/mL
Necmycin [reference compound]	200 µg/mL	200 µg/mL	12.5 µg/mL	12.5 µg/mL	–	–	–	–
CCc1cc(-c2ccc([N+](=O)[O-])o2)c2ccc(OC)cc2[n+]1[O-] [Compound 24]	–	–	–	–	> 10 µg/mL	> 10 µg/mL	> 10 µg/mL	10 µg/mL (≈ 31.8 µM)
CCc1cccc2c(-c3ccc([N+](=O)[O-])o3)cc(C)nc12 [Compound 10]	–	–	–	–	> 10 µg/mL	> 10 µg/mL	> 10 µg/mL	> 10 µg/mL
CC(=O)OCc1cc(-c2ccc([N+](=O)[O-])o2)c2ccccc2n1 [Compound 33]	–	–	–	–	> 10 µg/mL	> 10 µg/mL	> 10 µg/mL	> 10 µg/mL
O=[N+]([O-])c1ccc(-c2ccnc3ccccc23)o1 [Compound 11]	–	–	–	–	10 µg/mL (≈ 41.6 µM)	> 10 µg/mL	> 10 µg/mL	> 10 µg/mL
O=C1OC(CN2CCOCC2)CN1/N=C/c1ccc([N+](=O)[O-])o1 (centres unmarked) [Furaltadone, reference compound]	–	–	–	–	1 µg/mL (≈ 3.08 µM)	> 10 µg/mL	10 µg/mL (≈ 30.8 µM)	10 µg/mL (≈ 30.8 µM)
Cc1cc(-c2ccc([N+](=O)[O-])o2)c2ccccc2n1 [Compound 5]	–	–	–	–	10 µg/mL (≈ 39.3 µM)	10 µg/mL (≈ 39.3 µM)	> 10 µg/mL	> 10 µg/mL
CO[C@H]1/C=C/O[C@@]2(C)Oc3c(C)c(O)c4c(O)c(cc(O)c4c3C2=O)NC(=O)/C(C)=C\C=C\[C@H](C)[C@H](O)[C@@H](C)[C@@H](O)[C@@H](C)[C@H](OC(C)=O)[C@@H]1C [Rifamycin, reference compound]	–	–	–	–	3.12 µg/mL (≈ 4.47 µM)	> 50 µg/mL	0.12 µg/mL (≈ 0.172 µM)	0.12 µg/mL (≈ 0.172 µM)
O=[N+]([O-])c1ccc(-c2cc(CO)nc3ccccc23)o1 [Compound 13]	–	–	–	–	5 µg/mL (≈ 18.5 µM)	> 10 µg/mL	10 µg/mL (≈ 37 µM)	5 µg/mL (≈ 18.5 µM)
O=C(O)c1cc(-c2ccc([N+](=O)[O-])o2)c2ccccc2n1 [Compound 2, 4-(5-nitrofuryl)-quinaldinic acid]	–	–	–	–	0.12 µg/mL (≈ 0.422 µM)	1 µg/mL (≈ 3.52 µM)	1 µg/mL (≈ 3.52 µM)	0.5 µg/mL (≈ 1.76 µM)
CCc1ccc2nc(CC)cc(-c3ccc([N+](=O)[O-])o3)c2c1 [Compound 31]	–	–	–	–	> 10 µg/mL	> 10 µg/mL	> 10 µg/mL	> 10 µg/mL

Molecule	Minimal Bactericidal Activity (MBC), Strep.uberis 60B (Strep.uberis; field isolate 60B)	Minimal Bactericidal Activity (MBC), Strep.uberis 127A (Strep.uberis; field isolate 127A)	Minimal Bactericidal Activity (MBC), Staph.Aureus 2337 (Staph.Aureus; field isolate 2337)	Minimal Bactericidal Activity (MBC), Staph.Aureus 2372 (Staph.Aureus; field isolate 2372)	MBC (Strep.uberis; [1])	MBC (Strep.uberis; [2])	MBC (Staph.Aureus; [3])	MBC (Staph.Aureus; [4])
COc1ccc2c(-c3ccc([N+](=O)[O-])o3)cc(C(=O)O)[n+]([O-])c2c1 [Compound 25]	–	–	–	–	0.25 µg/mL (≈ 0.757 µM)	0.5 µg/mL (≈ 1.51 µM)	1 µg/mL (≈ 3.03 µM)	5 µg/mL (≈ 15.1 µM)
CC1(C)S[C@@H]2[C@H](NC(=O)Cc3ccccc3)C(=O)N2[C@H]1C(=O)O [Penicillin G, reference compound]	–	–	–	–	0.06 µg/mL (≈ 0.179 µM)	1.56 µg/mL (≈ 4.67 µM)	> 50 µg/mL	> 50 µg/mL
CCc1ccc2c(c1)c(-c1ccc([N+](=O)[O-])o1)cc(C)[n+]2[O-] [Compound 20]	–	–	–	–	> 10 µg/mL	> 10 µg/mL	5 µg/mL (≈ 16.8 µM)	5 µg/mL (≈ 16.8 µM)
Cc1cc(-c2ccc([N+](=O)[O-])o2)c2ccccc2[n+]1[O-] [Compound 6]	–	–	–	–	5 µg/mL (≈ 18.5 µM)	5 µg/mL (≈ 18.5 µM)	5 µg/mL (≈ 18.5 µM)	5 µg/mL (≈ 18.5 µM)
Cc1cc(-c2ccc([N+](=O)[O-])o2)[n+]([O-])c2ccccc12 [Compound 4]	–	–	–	–	> 10 µg/mL	> 10 µg/mL	10 µg/mL (≈ 37 µM)	> 10 µg/mL
COc1ccc2c(-c3ccc([N+](=O)[O-])o3)cc(C)nc2c1 [Compound 9]	–	–	–	–	10 µg/mL (≈ 35.2 µM)	5 µg/mL (≈ 17.6 µM)	5 µg/mL (≈ 17.6 µM)	5 µg/mL (≈ 17.6 µM)
COc1cc2nc(C)cc(-c3ccc([N+](=O)[O-])o3)c2cc1N [Compound 34]	–	–	–	–	0.25 µg/mL (≈ 0.835 µM)	1 µg/mL (≈ 3.34 µM)	5 µg/mL (≈ 16.7 µM)	5 µg/mL (≈ 16.7 µM)
CCc1cc(-c2ccc([N+](=O)[O-])o2)c2cc(C)c(C)cc2[n+]1[O-] [Compound 40]	–	–	–	–	5 µg/mL (≈ 16 µM)	10 µg/mL (≈ 32 µM)	5 µg/mL (≈ 16 µM)	5 µg/mL (≈ 16 µM)
CNN=Cc1cc(-c2ccc([N+](=O)[O-])o2)c2ccccc2n1 [Compound 36]	–	–	–	–	5 µg/mL (≈ 16.9 µM)	5 µg/mL (≈ 16.9 µM)	> 10 µg/mL	5 µg/mL (≈ 16.9 µM)
O=[N+]([O-])c1ccc(-c2cc[n+]([O-])c3ccccc23)o1 [Compound 41]	–	–	–	–	5 µg/mL (≈ 19.5 µM)	10 µg/mL (≈ 39 µM)	10 µg/mL (≈ 39 µM)	5 µg/mL (≈ 19.5 µM)
Cc1cc(-c2ccc([N+](=O)[O-])o2)c2ccc(N)c(C)c2n1 [Compound 35]	–	–	–	–	5 µg/mL (≈ 17.6 µM)	10 µg/mL (≈ 35.3 µM)	5 µg/mL (≈ 17.6 µM)	5 µg/mL (≈ 17.6 µM)
CCOc1ccc2c(-c3ccc([N+](=O)[O-])o3)cc(C(=O)O)nc2c1 [Compound 17]	–	–	–	–	0.03 µg/mL (≈ 0.0914 µM)	1 µg/mL (≈ 3.05 µM)	1 µg/mL (≈ 3.05 µM)	0.5 µg/mL (≈ 1.52 µM)
COc1cc2nc(C)cc(-c3ccc([N+](=O)[O-])o3)c2cc1OC [Compound 37]	–	–	–	–	5 µg/mL (≈ 15.9 µM)	10 µg/mL (≈ 31.8 µM)	10 µg/mL (≈ 31.8 µM)	5 µg/mL (≈ 15.9 µM)
O=C(c1cc(-c2ccc([N+](=O)[O-])o2)c2ccccc2n1)N1CCOCC1 [Compound 18]	–	–	–	–	5 µg/mL (≈ 14.2 µM)	> 10 µg/mL	> 10 µg/mL	10 µg/mL (≈ 28.3 µM)
CC(=O)Oc1ccc2c(-c3ccc([N+](=O)[O-])o3)cc(C)nc2c1 [Compound 8]	–	–	–	–	0.25 µg/mL (≈ 0.801 µM)	10 µg/mL (≈ 32 µM)	5 µg/mL (≈ 16 µM)	5 µg/mL (≈ 16 µM)
CC[C@H]1OC(=O)[C@H](C)[C@@H](O[C@H]2C[C@@](C)(OC)[C@@H](O)[C@H](C)O2)[C@H](C)[C@@H](O[C@@H]2O[C@H](C)C[C@H](N(C)C)[C@H]2O)[C@](C)(O)C[C@@H](C)C(=O)[C@H](C)[C@@H](O)[C@]1(C)O [Erythremycin, reference compound]	–	–	–	–	0.39 µg/mL (≈ 0.531 µM)	3.12 µg/mL (≈ 4.25 µM)	0.78 µg/mL (≈ 1.06 µM)	6.25 µg/mL (≈ 8.52 µM)
